Source: patent publication US20240309043A1, “THERAPEUTICALLY ACTIVE STEROIDAL DERIVATIVES” (Organon R&D Finland Ltd., priority 2017, published 2024)

Key:
[1] = target: T1, recombinant human 17β-HSD1 (Homo sapiens, UniProt P14061); assay: Inhibition of recombinant human 17β-HSD1; format: biochemical; details: inhibitor 100 nM; 30 nM estrone, 1 mM NADPH, 30 min RT
T1 construct: made in house; host or cells: Sd9 (Sf9) insect cells, baculovirus (Bac to Bac Expression System)
T1 sequence (P14061 1-328): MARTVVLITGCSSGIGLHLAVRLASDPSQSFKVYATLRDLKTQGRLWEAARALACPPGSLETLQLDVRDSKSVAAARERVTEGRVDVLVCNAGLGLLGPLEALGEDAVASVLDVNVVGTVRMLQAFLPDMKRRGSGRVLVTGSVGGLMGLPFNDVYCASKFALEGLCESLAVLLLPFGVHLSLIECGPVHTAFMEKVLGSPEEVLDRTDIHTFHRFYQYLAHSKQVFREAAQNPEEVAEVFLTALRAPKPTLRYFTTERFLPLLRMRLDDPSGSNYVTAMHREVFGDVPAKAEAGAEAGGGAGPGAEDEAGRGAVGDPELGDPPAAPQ
Procedure, shortened: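 Microsomes from Sf9 cells expressing human 17β-HSD1 (1 μg/ml) were incubated for 30 min at RT in 20 mM KH2PO4 pH 7.4 with 30 nM ³H-estrone, 1 mM NADPH and inhibitor at 1 μM or 0.1 μM (1% DMSO). Estrone-to-estradiol conversion was measured by radio-HPLC after TCA stop, and % inhibition was taken as 100 − % conversion.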

[2] = target: T2, recombinant human 17β-HSD2 (Homo sapiens, UniProt P37059); assay: Inhibition of recombinant human 17β-HSD2; format: biochemical; details: inhibitor 1 μM; 50 nM estradiol, 1 mM NADH, 30 min RT
T2 construct: made in house; host or cells: Sd9 (Sf9) insect cells, baculovirus (Bac to Bac Expression System)
T2 sequence (P37059 1-387): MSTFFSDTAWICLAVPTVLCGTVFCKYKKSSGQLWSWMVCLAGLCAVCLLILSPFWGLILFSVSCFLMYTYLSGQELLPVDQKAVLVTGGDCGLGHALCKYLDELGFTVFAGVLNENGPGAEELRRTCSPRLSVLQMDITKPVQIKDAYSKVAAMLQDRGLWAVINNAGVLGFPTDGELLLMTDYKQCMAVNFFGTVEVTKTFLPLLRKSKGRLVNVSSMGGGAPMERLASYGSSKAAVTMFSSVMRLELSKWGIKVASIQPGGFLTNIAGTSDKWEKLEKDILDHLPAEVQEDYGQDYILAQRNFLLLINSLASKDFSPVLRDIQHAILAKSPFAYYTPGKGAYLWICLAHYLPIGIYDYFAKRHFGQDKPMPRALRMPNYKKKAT
Procedure, shortened: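 Sf9 baculovirus-expressed enzyme membrane extract (4 μg/ml) incubated 30 min at RT in 20 mM KH2PO4 pH 8.5 with 50 nM estradiol (³H-tracer) and 1 mM NADH, inhibitor at 1 μM or 0.1 μM, 1% DMSO. TCA-stopped; estradiol-to-estrone conversion by radio-HPLC, % inhibition = 100 − % conversion.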

[3] = system: HSD1 enzyme that is expressed in rabbit placenta tissue; assay: Inhibition of E1 to E2 conversion in rabbit placenta tissue homogenate; format: biochemical; details: inhibitor 100 nM, 30 nM estrone, 30 min
[4] = system: human hepatocytes; assay: Metabolic stability assay, human hepatocyte incubations; format: in vitro ADME; details: 37° C., 0-60 min, half life
Procedure: The in vitro metabolic stability of the compounds of the invention was determined for exemplified compounds using human hepatocyte incubations. Study compounds were incubated 0, 10, 20, 40 and 60 min at 37° C. Samples were collected at all time points and compounds were detected by LC-MS/MS analysis. The percent compound remaining is calculated by comparing the peak area of the parent compound at each time point to time zero. In vitro metabolic stability was determined as half life (T½), which was determined by regression analysis of the percent parent disappearance vs. time curve. The results are summarized in Table2.

SMILES | inhibition at 0.1 µM [1] [%] | inhibition at 1 µM [2] [%] | Rabbit placenta inhibition % @100 nM [3] [%] | Human hepatocytes MetStab T1_2 min [4] [min] | HSD1 inhibition % @100 nM [1] [%] | HSD2 inhibition % @1 μM [2] [%]
Cc1cc(NC(=O)CC[C@@H]2C/C(=N\O)[C@@]3(C)CCC4c5cccc(F)c5CCC4C23)no1 (stereo partly drawn) [Compound 2, 3-((13S,15R,E)-4-fluoro-17-(hydroxyimino)-13-methyl-7,8,9,11,12,13,14,15,16,17-decahydro-6H-cyclopenta[a]phenanthren-15-yl)-N-(5-methylioxazol-3-yl)propanamide] | 83 | 9 | 75 | 38 |  | 
COc1ccc(NC(=O)CC[C@@H]2C/C(=N\O)[C@@]3(C)CCC4c5cccc(F)c5CCC4C23)nn1 (stereo partly drawn) [Compound 4, 3-((13S,15R,E)-4-fluoro-17-(hydroxyimino)-13-methyl-7,8,9,11,12,13,14,15,16,17-decahydro-6H-cyclopenta[a]phenanthren-15-yl)-N-(6-methoxypyridazin-3-yl)propanamide] | 87 | 13 |  | 42 |  | 
COc1ccc(NC(=O)CC[C@@H]2C/C(=N\O)[C@@]3(C)CCC4c5cccc(F)c5CCC4C23)nc1 (stereo partly drawn) [Compound 6, 3-((13S,15R,E)-4-fluoro-17-(hydroxyimino)-13-methyl-7,8,9,11,12,13,14,15,16,17-decahydro-6H-cyclopenta[a]phenanthren-15-yl)-N-(5-methoxypyridin-2-yl)propanamide] | 92 | 1 | 79 | 67 |  | 
C[C@]12CCC3c4cccc(F)c4CCC3C1[C@H](CCC(=O)Nc1ccc(F)cn1)C/C2=N\O (stereo partly drawn) [Compound 8, 3-((13S,15R,E)-4-fluoro-17-(hydroxyimino)-13-methyl-7,8,9,11,12,13,14,15,16,17-decahydro-6H-cyclopenta[a]phenanthren-15-yl)-N-(5-fluoropyridin-2-yl)propanamide] | 90 | 2 | 37 | 52 |  | 
C[C@]12CCC3c4cccc(F)c4CCC3C1[C@H](CCC(=O)Nc1cccnn1)C/C2=N\O (some centres unmarked) [Compound 20] | 80 | 0 | 50 | 17 |  | 
CC(C)c1ccc(NC(=O)CC[C@@H]2C/C(=N\O)[C@@]3(C)CCC4c5ccc(F)cc5CCC4C23)nc1 (stereo partly drawn) [Compound 42, 3-((13S,15R,E)-3-fluoro-17-(hydroxyimino)-13-methyl-7,8,9,11,12,13,14,15,16,17-decahydro-6H-cyclopenta[a]phenanthren-15-yl)-N-(5-isopropylpyridin-2-yl)propanamide] | 96 | -5 | 41 | 78 |  | 
COc1ccnc(NC(=O)CC[C@@H]2C/C(=N\O)[C@@]3(C)CCC4c5ccc(Cl)cc5CCC4C23)c1 (stereo partly drawn) [Compound 56, 3-((13S,15R,E)-3-chloro-17-(hydroxyimino)-13-methyl-7,8,9,11,12,13,14,15,16,17-decahydro-6H-cyclopenta[a]phenanthren-15-yl)-N-(4-methoxypyridin-2-yl)propanamide] | 63 | 3 | 0 | 334 |  | 
COc1ccc(NC(=O)CC[C@@H]2C/C(=N\O)[C@@]3(C)CCC4c5ccccc5CCC4C23)nc1 (some centres unmarked) [Compound 84] | 73 | -15 | 35 | 35 |  | 
C[C@]12CCC3c4ccccc4CCC3C1[C@H](CCC(=O)Nc1ccc(N3CCOCC3)cn1)C/C2=N\O (stereo partly drawn) [Compound 90, 3-((13S,15R,E)-17-(hydroxyimino)-13-methyl-7,8,9,11,12,13,14,15,16,17-decahydro-6H-cyclopenta[a]phenanthren-15-yl)-N-(5-morpholinopyridin-2-yl)propanamide] | 82 | -6 | 47 | 83 |  | 
C[C@]12CCC3c4ccc(Cl)cc4CCC3C1[C@H](CCC(=O)Nc1ncccc1F)C/C2=N\O (stereo partly drawn) [Compound 162, 3-((13S,15R,E)-3-chloro-17-(hydroxyimino)-13-methyl-7,8,9,11,12,13,14,15,16,17-decahydro-6H-cyclopenta[a]phenanthren-15-yl)-N-(3-fluoropyridin-2-yl)propanamide] |  |  | 7 |  | 44 | 10
C[C@]12CCC3c4ccc(Cl)cc4CCC3C1[C@H](CCC(=O)Nc1ncc(F)cc1F)C/C2=N\O (stereo partly drawn) [Compound 164, 3-((13S,15R,E)-3-chloro-17-(hydroxyimino)-13-methyl-7,8,9,11,12,13,14,15,16,17-decahydro-6H-cyclopenta[a]phenanthren-15-yl)-N-(3,5-difluoropyridin-2-yl)propanamide] | 40 | 11 | 5 |  |  | 
C[C@]12CCC3c4ccccc4CCC3C1[C@H](CCC(=O)Nc1ncc(F)cc1F)C/C2=N\O (stereo partly drawn) [Compound 166, N-(3,5-difluoropyridin-2-yl)-3-((13S,15R,E)-17-(hydroxyimino)-13-methyl-7,8,9,11,12,13,14,15,16,17-decahydro-6H-cyclopenta[a]phenanthren-15-yl)propanamide] | 56 | 7 | 3 |  |  | 
C[C@]12CCC3c4ccccc4CCC3C1[C@H](CCC(=O)Nc1cccc(F)n1)C/C2=N\O (stereo partly drawn) [Compound 168, N-(6-fluoropyridin-2-yl)-3-((13S,15R,E)-17-(hydroxyimino)-13-methyl-7,8,9,11,12,13,14,15,16,17-decahydro-6H-cyclopenta[a]phenanthren-15-yl)propanamide] | 26 | 9 | 6 |  |  | 
C[C@]12CCC3c4ccc(Cl)cc4CCC3C1[C@H](CCC(=O)Nc1cccc(F)n1)C/C2=N\O (stereo partly drawn) [Compound 170, 3-((13S,15R,E)-3-chloro-17-(hydroxyimino)-13-methyl-7,8,9,11,12,13,14,15,16,17-decahydro-6H-cyclopenta[a]phenanthren-15-yl)-N-(6-fluoropyridin-2-yl)propanamide] | 34 | 12 | 13 |  |  | 
CN(C)C(=O)c1ccc(NC(=O)CC[C@@H]2C/C(=N\O)[C@@]3(C)CCC4c5ccc(Cl)cc5CCC4C23)nc1 (stereo partly drawn) [Compound 172, 6-(3-((13S,15R,E)-3-chloro-17-(hydroxyimino)-13-methyl-7,8,9,11,12,13,14,15,16,17-decahydro-6H-cyclopenta[a]phenanthren-15-yl)propanamido)-N,N-dimethylnicotinamide] | 45 | 9 | 9 |  |  | 
C[C@]12CCC3c4ccc(Cl)cc4CCC3C1[C@H](CCC(=O)Nc1cc3c([nH]c1=O)CCCC3)C/C2=N\O (stereo partly drawn) [Compound 174, 3-((13S,15R,E)-3-chloro-17-(hydroxyimino)-13-methyl-7,8,9,11,12,13,14,15,16,17-decahydro-6H-cyclopenta[a]phenanthren-15-yl)-N-(2-oxo-1,2,5,6,7,8-hexahydroquinolin-3-yl)propanamide] | 84 | 12 | 10 |  |  | 
CN(C)C(=O)c1ccc(NC(=O)CC[C@@H]2C/C(=N\O)[C@@]3(C)CCC4c5cccc(F)c5CCC4C23)nc1 (stereo partly drawn) [Compound 176, 6-(3-((13S,15R,E)-4-fluoro-17-(hydroxyimino)-13-methyl-7,8,9,11,12,13,14,15,16,17-decahydro-6H-cyclopenta[a]phenanthren-15-yl)propanamido)-N,N-dimethylnicotinamide] | 87 | 5 | 34 |  |  | 
